Results published in patent US10251885B2, “Azole antifungal compositions” (ALLERGAN PHARMACEUTICALS INTERNATIONAL LIMITED, priority 2009, dated 2019).
Values after ≈ are worked out from the molar mass of the structure shown.

Experiments:
T. mentagrophytes [1] = experiment: Microdilution assay, minimum fungicidal concentration (MFC); assay type: cell-based, Trichophyton mentagrophytes; conditions: n = 5 strains
Method: (§1) Multiple strains of Trichophyton rubrum, Trichophyton mentagrophytes and Epidermophyton flucossum were obtained from the culture collection facility at the Center for Medical Mycology (University Hospitals of Cleveland/Case Western Reserve University, Cleveland, Ohio). The minimum inhibitory concentration (MICs) for albaconazole, ciclopirox and terbinafine against each dermatophyte strain was determined according to the method approved by the CLSI Antifungal Subcommittee as a reference method for determining dermatophyte susceptibilities (Ghannoum et al., J. Clin. Microbiol. 42: 2977-2979, 2004). […] Microbiol. Infect. Dis. 45:203-206, 2003.
(§2) Tables 1 and 2 describe the minimum inhibitory concentrations (in ug/mL) and the minimum fungicidal concentrations (in ug/mL), respectively, for the active agents against the dermatophyte strains.

All Dermatophytes [2] = experiment: Microdilution assay, minimum inhibitory concentration (MIC); assay type: cell-based; conditions: for MIC50 / MIC90 / MIC Range: All Dermatophytes, n = 15 strains
Method: as §1, §2

E. flucossum [3] = experiment: Microdilution assay, minimum fungicidal concentration (MFC); assay type: cell-based, Epidermophyton flucossum; conditions: n = 5 strains
Method: as §1, §2

T. mentagrophytes [4] = experiment: Microdilution assay, minimum inhibitory concentration (MIC); assay type: cell-based, Trichophyton mentagrophytes; conditions: n = 5 strains; for MIC50 / MIC90: Trichophyton mentagrophytes
Method: as §1, §2

All Dermatophytes [5] = experiment: Microdilution assay, minimum fungicidal concentration (MFC); assay type: cell-based; conditions: for MFC50 / MFC90 / MFC Range: All Dermatophytes, n = 15 strains
Method: as §1, §2

[6] = test system: T. rubrum elevated terbinafine (MIC); experiment: as above; assay type: cell-based, Trichophyton rubrum; conditions: n = 3 strains
Method: as §1, §2

T. rubrum [7] = experiment: as above; assay type: cell-based, Trichophyton rubrum; conditions: n = 2 strains
Method: as §1, §2

[8] = test system: T. rubrum elevated terbinafine (MIC); experiment: Microdilution assay, minimum inhibitory concentration (MIC); assay type: cell-based, Trichophyton rubrum; conditions: for MIC Range / MIC50 / MIC90: T. rubrum elevated terbinafine (MIC), n = 3 strains; for MIC50 / MIC90: Trichophyton rubrum
Method: as §1, §2

T. rubrum [9] = experiment: as above; assay type: cell-based, Trichophyton rubrum; conditions: n = 2 strains; for MIC50 / MIC90: Trichophyton rubrum
Method: as §1, §2

E. flucossum [10] = experiment: as above; assay type: cell-based, Epidermophyton flucossum; conditions: n = 5 strains; for MIC50 / MIC90: Epidermophyton
Method: as §1, §2

Structure (SMILES): C[C@@H](n1cnc2cc(Cl)ccc2c1=O)[C@](O)(Cn1cncn1)c1ccc(F)cc1F [Albaconazole, (1R,2R)-7-chloro-3-[2-(2,4-difluorophenyl)-2-hydroxy-1-methyl-3-(1H-1,2,4-triazol-1yl)propyl]quinazolin-4(3H)-one]
- MFC50 (T. mentagrophytes [1]): 1 µg/mL (≈ 2.32 µM)
- MFC90 (T. mentagrophytes [1]): 8 µg/mL (≈ 18.5 µM)
- MFC Range (T. mentagrophytes [1]): 0.5 to 8 µg/mL
- MIC50 (All Dermatophytes [2]): 0.06 µg/mL (≈ 0.139 µM)
- MIC90 (All Dermatophytes [2]): 0.25 µg/mL (≈ 0.579 µM)
- MIC Range (All Dermatophytes [2]): 0.008 to 0.5 µg/mL
- MICs overall, compared with ciclopirox and terbinafine (All Dermatophytes [2]; overall, in words): lower than those for ciclopirox and similar to those for terbinafine
- MFC50 (E. flucossum [3]): 0.25 µg/mL (≈ 0.579 µM)
- MFC90 (E. flucossum [3]): 8 µg/mL (≈ 18.5 µM)
- MFC Range (E. flucossum [3]): 0.06 to 8 µg/mL
- MIC50 (T. mentagrophytes [4]): 0.12 µg/mL (≈ 0.278 µM)
- MIC90 (T. mentagrophytes [4]): 0.5 µg/mL (≈ 1.16 µM)
- MIC Range (T. mentagrophytes [4]): 0.12 to 0.5 µg/mL
- MFC50 (All Dermatophytes [5]): 0.5 µg/mL (≈ 1.16 µM)
- MFC90 (All Dermatophytes [5]): 8 µg/mL (≈ 18.5 µM)
- MFC Range (All Dermatophytes [5]): 0.06 to 8 µg/mL
- MFCs overall, compared with ciclopirox and terbinafine (All Dermatophytes [5]; overall, in words): lower than those for ciclopirox and similar to those for terbinafine
- MFC50 [6]: 0.25 µg/mL (≈ 0.579 µM)
- MFC90 [6]: 1 µg/mL (≈ 2.32 µM)
- MFC Range [6]: 0.06 to 1 µg/mL
- MFC50 (T. rubrum [7]): 0.5 µg/mL (≈ 1.16 µM)
- MFC90 (T. rubrum [7]): 8 µg/mL (≈ 18.5 µM)
- MFC Range (T. rubrum [7]): 0.5 to 8 µg/mL
- MIC Range [8]: 0.015 to 0.25 µg/mL
- MIC50 [8]: 0.06 µg/mL (≈ 0.139 µM)
- MIC90 [8]: 0.25 µg/mL (≈ 0.579 µM)
- effectiveness against terbinafine-resistant Trichophyton rubrum strains ([8]; compared with terbinafine, in words): more effective
- MIC50 (T. rubrum [9]): 0.06 µg/mL (≈ 0.139 µM)
- MIC90 (T. rubrum [9]): 0.06 µg/mL (≈ 0.139 µM)
- MIC Range (T. rubrum [9]): 0.06 µg/mL (≈ 0.139 µM)
- MIC50 (E. flucossum [10]): 0.015 µg/mL (≈ 0.0347 µM)
- MIC90 (E. flucossum [10]): 0.015 µg/mL (≈ 0.0347 µM)
- MIC Range (E. flucossum [10]): 0.008 to 0.015 µg/mL

Structure (SMILES): Cc1cc(C2CCCCC2)n(O)c(=O)c1 [Ciclopirox, ciclopirox]
- MFC50 (T. mentagrophytes [1]): >32 µg/mL
- MFC90 (T. mentagrophytes [1]): >32 µg/mL
- MIC50 (All Dermatophytes [2]): 0.12 µg/mL (≈ 0.579 µM)
- MIC90 (All Dermatophytes [2]): 0.25 µg/mL (≈ 1.21 µM)
- MFC50 (E. flucossum [3]): 4 µg/mL (≈ 19.3 µM)
- MFC90 (E. flucossum [3]): >32 µg/mL
- MIC50 (T. mentagrophytes [4]): 0.25 µg/mL (≈ 1.21 µM)
- MIC90 (T. mentagrophytes [4]): 0.25 µg/mL (≈ 1.21 µM)
- MIC Range (T. mentagrophytes [4]): 0.12 to 0.25 µg/mL
- MFC50 (All Dermatophytes [5]): 16 µg/mL (≈ 77.2 µM)
- MFC90 (All Dermatophytes [5]): >32 µg/mL
- MFC50 [6]: 16 µg/mL (≈ 77.2 µM)
- MFC90 [6]: >32 µg/mL
- MFC50 (T. rubrum [7]): 16 µg/mL (≈ 77.2 µM)
- MFC90 (T. rubrum [7]): 32 µg/mL (≈ 154 µM)
- MFC Range (T. rubrum [7]): 16 to 32 µg/mL
- MIC Range [8]: 0.12 µg/mL (≈ 0.579 µM)
- MIC50 [8]: 0.12 µg/mL (≈ 0.579 µM)
- MIC90 [8]: 0.12 µg/mL (≈ 0.579 µM)
- MIC50 (T. rubrum [9]): 0.12 µg/mL (≈ 0.579 µM)
- MIC90 (T. rubrum [9]): 0.12 µg/mL (≈ 0.579 µM)
- MIC Range (T. rubrum [9]): 0.12 µg/mL (≈ 0.579 µM)
- MIC50 (E. flucossum [10]): 0.12 µg/mL (≈ 0.579 µM)
- MIC90 (E. flucossum [10]): 0.12 µg/mL (≈ 0.579 µM)
- MIC Range (E. flucossum [10]): 0.12 µg/mL (≈ 0.579 µM)

Structure (SMILES): CN(C/C=C/C#CC(C)(C)C)Cc1cccc2ccccc12 [Terbinafine, terbinafine]
- MFC50 (T. mentagrophytes [1]): 0.015 µg/mL (≈ 0.0515 µM)
- MFC90 (T. mentagrophytes [1]): 0.03 µg/mL (≈ 0.103 µM)
- MFC Range (T. mentagrophytes [1]): 0.015 to 0.03 µg/mL
- MIC50 (All Dermatophytes [2]): 0.002 µg/mL (≈ 0.00686 µM)
- MIC90 (All Dermatophytes [2]): 8 µg/mL (≈ 27.5 µM)
- MIC Range (All Dermatophytes [2]): 0.002 to 32 µg/mL
- MFC50 (E. flucossum [3]): 0.03 µg/mL (≈ 0.103 µM)
- MFC90 (E. flucossum [3]): 0.03 µg/mL (≈ 0.103 µM)
- MIC50 (T. mentagrophytes [4]): 0.002 µg/mL (≈ 0.00686 µM)
- MIC90 (T. mentagrophytes [4]): 0.004 µg/mL (≈ 0.0137 µM)
- MIC Range (T. mentagrophytes [4]): 0.002 to 0.004 µg/mL
- MFC50 (All Dermatophytes [5]): 0.015 µg/mL (≈ 0.0515 µM)
- MFC90 (All Dermatophytes [5]): 32 µg/mL (≈ 110 µM)
- MFC Range (All Dermatophytes [5]): 0.008 µg/mL (≈ 0.0275 µM)
- MFC50 [6]: 32 µg/mL (≈ 110 µM)
- MFC90 [6]: >64 µg/mL
- MFC50 (T. rubrum [7]): 0.008 µg/mL (≈ 0.0275 µM)
- MFC90 (T. rubrum [7]): 0.008 µg/mL (≈ 0.0275 µM)
- MFC Range (T. rubrum [7]): 0.008 µg/mL (≈ 0.0275 µM)
- MIC Range [8]: 8 to 32 µg/mL
- MIC50 [8]: 8 µg/mL (≈ 27.5 µM)
- MIC90 [8]: 32 µg/mL (≈ 110 µM)
- MIC50 (T. rubrum [9]): 0.002 µg/mL (≈ 0.00686 µM)
- MIC90 (T. rubrum [9]): 0.002 µg/mL (≈ 0.00686 µM)
- MIC Range (T. rubrum [9]): 0.002 µg/mL (≈ 0.00686 µM)
- MIC50 (E. flucossum [10]): 0.002 µg/mL (≈ 0.00686 µM)
- MIC90 (E. flucossum [10]): 0.008 µg/mL (≈ 0.0275 µM)
- MIC Range (E. flucossum [10]): 0.002 to 0.008 µg/mL
